Data reported in BindingDB's records for patent WO2023288264 (Blueprint Medicines, 2023).
Values joined by “and” are separate entries in the source; they are usually repeats but may differ in a detail not shown here. Identical values can stand only once.

Biological target: Mitogen-activated protein kinase kinase kinase kinase 1 (Homo sapiens, UniProt Q92918)
Assay: MAP4K1 Biochemical Enzymatic Activity
Procedure: Inhibitors were dissolved in 100% DMSO at a stock concentration of 10 mM. A 100X, 10-point, 4-fold serial dilution of each inhibitor was created in 100% DMSO either manually or on a Hamilton STAR liquid handler, starting at a relevant concentration, usually 1 mM. A volume of 0.130 µL of each concentration was transferred to the relevant wells of a 384-well plate (Greiner 781 201) in duplicate using a TTPLabtech Mosquito nano-litre dispenser. Using a Multidrop Combi, the remaining constituents of the kinase reaction were added to the 130 nL of dosed compound as follows (see table below for final reaction details):Enzyme activity assays at the APPKM for ATP or 1 mM ATP: In each well of a 384-well plate, 0.1 - 15 nM of untreated enzyme was incubated in a total of 13 µL of buffer (100 mM HEPES pH 7.5, 0.015% Brij 35, 10 mM MgCl2, 1mM DTT) with 1.5 µM fluorescent peptide and 20 - 1000 µM ATP, at 25 °C, for 60 - 180 minutes in the presence or absence of a dosed concentration series of compound (1% DMSO final concentration). The kinase reactions were stopped by the addition of 70 µl of Stop buffer (100 mM HEPES pH 7.5, 0.015% Brij 35, 35 mM EDTA and 0.2% of Coating Reagent 3 (Caliper Lifesciences)). The plates were read on a Caliper EZReader 2 as described above.

Chain of Mitogen-activated protein kinase kinase kinase kinase 1 (Q92918 whole entry): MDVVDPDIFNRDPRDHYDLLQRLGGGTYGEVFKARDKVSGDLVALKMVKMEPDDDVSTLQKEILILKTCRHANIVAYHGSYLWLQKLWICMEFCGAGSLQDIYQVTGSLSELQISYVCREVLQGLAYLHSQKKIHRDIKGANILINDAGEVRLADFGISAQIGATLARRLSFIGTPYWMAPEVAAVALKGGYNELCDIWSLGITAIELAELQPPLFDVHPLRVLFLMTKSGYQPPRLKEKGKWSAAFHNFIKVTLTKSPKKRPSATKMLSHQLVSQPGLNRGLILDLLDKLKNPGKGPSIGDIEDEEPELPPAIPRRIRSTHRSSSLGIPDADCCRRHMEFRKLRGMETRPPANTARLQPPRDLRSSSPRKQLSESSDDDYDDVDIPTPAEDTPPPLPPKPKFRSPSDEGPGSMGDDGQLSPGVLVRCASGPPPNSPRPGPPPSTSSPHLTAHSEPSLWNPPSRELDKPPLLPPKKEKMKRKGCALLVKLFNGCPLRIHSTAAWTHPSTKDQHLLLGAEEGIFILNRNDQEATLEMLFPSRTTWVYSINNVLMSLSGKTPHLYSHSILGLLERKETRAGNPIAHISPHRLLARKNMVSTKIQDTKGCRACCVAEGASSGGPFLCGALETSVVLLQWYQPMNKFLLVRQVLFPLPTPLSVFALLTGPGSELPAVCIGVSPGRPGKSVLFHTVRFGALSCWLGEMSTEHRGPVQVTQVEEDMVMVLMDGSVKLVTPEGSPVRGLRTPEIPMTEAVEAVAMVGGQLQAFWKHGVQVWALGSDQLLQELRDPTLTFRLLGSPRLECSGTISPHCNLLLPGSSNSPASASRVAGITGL

IC50 | SMILES
0.25 nM and 0.61 nM | CC[C@@H](O)c1cnc(OC)c2cnc(Nc3ccc4c(n3)[C@@H](C)C(C)(C)OC4=O)cc12 [WO2023288264, Compound 14]
3.06 nM | CC[C@H](O)c1cnc(OC)c2cnc(Nc3ccc4c(n3)[C@@H](C)C(C)(C)OC4=O)cc12 [WO2023288264, Compound 15]
0.3 nM | CC[C@@](C)(O)c1cnc(OC)c2cnc(Nc3ccc4c(n3)[C@@H](C)C(C)(C)OC4=O)cc12 [WO2023288264, Compound 17]
14 nM | COC[C@H](O)c1cnc(OC)c2cnc(Nc3ccc4c(n3)[C@@H](C)C(C)(C)OC4=O)cc12 [WO2023288264, Compound 19]
3.34 nM | CCOc1ncc([C@](C)(O)CC)c2cc(Nc3ccc4c(n3)[C@@H](C)C(C)(C)OC4=O)ncc12 [WO2023288264, Compound 23]
0.39 nM | CCOc1ncc([C@@](C)(O)CC)c2cc(Nc3ccc4c(n3)[C@@H](C)C(C)(C)OC4=O)ncc12 [WO2023288264, Compound 24]

The remaining lines, values behind:

SMILES | IC50
COc1ncc([C@@H](C)O)c2cc(Nc3ccnc(C(C)(C)F)n3)ncc12 [WO2023288264, Compound 1] | 121 nM
COc1ncc([C@H](C)O)c2cc(Nc3ccnc(C(C)(C)F)n3)ncc12 [WO2023288264, Compound 2] | 64 nM
COc1ncc(C(C)(C)O)c2cc(Nc3ccnc(N4CCCC4)n3)ncc12 [WO2023288264, Compound 9] | 1.63 nM
COc1ncc([C@@](C)(O)C(F)F)c2cc(Nc3ccnc(C(C)(C)F)n3)ncc12 [WO2023288264, Compound 11] | 15 nM
COc1ncc([C@](C)(O)C(F)F)c2cc(Nc3ccnc(C(C)(C)F)n3)ncc12 [WO2023288264, Compound 12] | 47 nM
COC[C@@H](O)c1cnc(OC)c2cnc(Nc3ccc4c(n3)[C@@H](C)C(C)(C)OC4=O)cc12 [WO2023288264, Compound 18] | 1.65 nM
CC[C@](C)(O)c1cnc(NC2CC2)c2cnc(Nc3ccc4c(n3)[C@@H](C)[C@H](C)OC4=O)cc12 [WO2023288264, Compound 20] | 3.48 nM
CC[C@@](C)(O)c1cnc(NC2CC2)c2cnc(Nc3ccc4c(n3)[C@@H](C)[C@H](C)OC4=O)cc12 [WO2023288264, Compound 21] | 1.98 nM
C[C@@H]1OC(=O)c2ccc(Nc3cc4c([C@@](C)(O)C5CC5)cnc(OC5CC5)c4cn3)nc2[C@H]1C [WO2023288264, Compound 25] | 27 nM
